Consider seven molecules from patent US20110105419A1, “PHARM[…] BASED ON CO[…] OF D-METALS” (priority 2008, published 2011).

One assay has as its system peritoneal macrophages. The experiment in a line: Intracellular calcium concentration and Ca2+ signals in peritoneal macrophages (Fura-2AM). It counts as cell-based, rat. On the technique in general: Calcium assays in cells follow changes in intracellular calcium, usually with a dye or a luminescent sensor.
In a further assay the test system is male rats with cytopenia. The experiment in a line: General blood analysis of male rats with cytopenia after application of cyclophosphane. It counts as in vivo, rat. Particulars: doses mg/kg: cysteine 9.5, lithium carbonate 3, C-Li 10, Fe-C-Li:C-Li 10.
Another assay has as its system herpes type 2 (HSV-2). The experiment in a line: Generalized herpetic infection of white mice. It counts as in vivo. Particulars: mice infected with HSV-2.
Assay [1] addresses T1, epidermal growth factor receptor (Homo sapiens, UniProt P00533).
T1 construct: cells of the human epidermoid carcinoma line A431 have an extraordinarily high level of expression of the epidermal growth factor receptor; endogenous in cells; host or cells: A431 (All-Russian Cell Culture Collection)
Description: Tyrosine kinase activity of the epidermal growth factor receptor in A431 cells (phosphotyrosine immunoblotting, densitometry). In kind it is cell-based. (In western blotting, separated proteins are transferred to a membrane and probed.)

Assay [2] concerns Chlamydia trachomatis, strain L-2. The experiment in a line: Experimental generalized chlamydial infection of white mice. In kind it is in vivo.
Where [3] appears, read: 3 days after cyclophosphane 100 mg/kg.
[4] abbreviates: 7 days after cyclophosphane 100 mg/kg.
Setting [5] is: 14 days after cyclophosphane 100 mg/kg.
Setting [6] is: Zovirax 15 mg/kg daily for 14 days.
Where [7] appears, read: Zovirax 30 mg/kg daily for 14 days.
Setting [8] is: mice infected with Chlamydia trachomatis L-2, 2 LD50, 20 mg/kg s.c. daily for 10 days.
Setting [9] is: mice infected with Chlamydia trachomatis L-2, josamycin 25 mg/kg orally daily for 10 days.
The mark [10] stands for this setting: mice infected with Chlamydia trachomatis L-2, josamycin 50 mg/kg orally daily for 10 days.
Where [11] appears, read: mice infected with Chlamydia trachomatis L-2, josamycin 100 mg/kg orally daily for 10 days.

Marks after values point to notes of the source that are not given here.

T1 sequence (P00533 25-1210): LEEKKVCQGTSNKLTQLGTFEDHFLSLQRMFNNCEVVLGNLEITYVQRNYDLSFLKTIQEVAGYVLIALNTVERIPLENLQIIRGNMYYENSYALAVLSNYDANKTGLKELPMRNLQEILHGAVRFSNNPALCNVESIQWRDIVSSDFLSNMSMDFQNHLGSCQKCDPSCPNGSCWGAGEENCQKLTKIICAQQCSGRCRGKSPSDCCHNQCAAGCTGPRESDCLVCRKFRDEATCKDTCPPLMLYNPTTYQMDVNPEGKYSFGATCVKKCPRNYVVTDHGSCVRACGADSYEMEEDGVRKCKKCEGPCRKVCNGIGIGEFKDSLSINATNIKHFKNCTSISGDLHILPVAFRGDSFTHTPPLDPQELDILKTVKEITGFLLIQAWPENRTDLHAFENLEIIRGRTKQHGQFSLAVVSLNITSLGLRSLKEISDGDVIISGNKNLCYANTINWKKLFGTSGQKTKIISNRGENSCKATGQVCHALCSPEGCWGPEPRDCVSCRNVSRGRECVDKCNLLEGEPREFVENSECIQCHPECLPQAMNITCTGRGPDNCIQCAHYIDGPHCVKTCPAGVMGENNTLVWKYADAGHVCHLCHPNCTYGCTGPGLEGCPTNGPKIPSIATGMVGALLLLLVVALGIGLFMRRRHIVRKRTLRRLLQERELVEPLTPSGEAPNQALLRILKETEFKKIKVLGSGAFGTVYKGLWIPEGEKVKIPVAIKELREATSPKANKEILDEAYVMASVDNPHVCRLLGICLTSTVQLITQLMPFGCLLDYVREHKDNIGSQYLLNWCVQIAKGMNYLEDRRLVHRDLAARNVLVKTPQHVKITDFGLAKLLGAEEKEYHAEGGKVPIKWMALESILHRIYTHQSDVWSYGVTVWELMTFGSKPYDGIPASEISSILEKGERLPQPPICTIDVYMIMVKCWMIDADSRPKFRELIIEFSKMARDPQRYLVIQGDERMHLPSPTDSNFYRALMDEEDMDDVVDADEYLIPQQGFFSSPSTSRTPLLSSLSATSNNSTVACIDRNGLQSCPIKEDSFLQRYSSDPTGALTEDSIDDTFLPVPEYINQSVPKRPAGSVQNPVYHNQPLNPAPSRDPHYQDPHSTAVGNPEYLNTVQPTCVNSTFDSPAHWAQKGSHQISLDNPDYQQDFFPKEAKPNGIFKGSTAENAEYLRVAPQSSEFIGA

For the molecule `Nc1ncnc2c1ncn2[C@@H]1O[C@H](COP(=O)(O)OP(=O)(O)OP(=O)(O)O)[C@@H](O)[C@H]1O` [ATP], the “[Ca2+]i peak of the Ca2+ signal” value with peritoneal macrophages (rat peritoneal macrophages, normal physiological solution, 200 μM ATP, baseline 75±18 nM) came to 820 ± 105 nM. For the same molecule, the “[Ca2+]i in the plateau phase, on average” value in the assay with peritoneal macrophages (rat peritoneal macrophages, normal physiological solution, 4 min after addition of 200 μM ATP) worked out at 460 ± 115 nM.
Take `N[C@@H](CS)C(=O)[O-].[Li+]` [C—Li, lithium salt of cysteine]: in the assay on male rats with cytopenia (setting [3]), the ESR was 3.3 ± 0.80 mm/h, the Erythrocytes is given as 4.0 ± 0.23 10^12/l, the Leukocytes is listed as 4.38 ± 0.31* 10^9/l and the Lymphocytes is 45 ± 1.6 %. In addition, in the assay on male rats with cytopenia (setting [3]), the Reticulocytes was 0.1 ± 0.1 %, the Segmented neutrophils is recorded as 42 ± 1.6 % and the Thrombocytes is listed as 387 ± 17.4 10^9/l. In the assay with male rats with cytopenia (setting [4]), the ESR is listed as 3.2 ± 0.80 mm/h, the Erythrocytes is 3.2 ± 0.18 10^12/l, the Leukocytes is recorded as 4.8 ± 0.18** 10^9/l and the Lymphocytes is listed as 22 ± 0.9 %. In addition, in the assay on male rats with cytopenia (setting [4]), the Reticulocytes turned out to be 1.2 ± 0.2%, the Segmented neutrophils is listed as 50.4 ± 0.6 % and the Thrombocytes is 164 ± 10.0** 10^3/l. In the assay with male rats with cytopenia (setting [5]), the ESR was 2.7 ± 0.49 mm/h, the Erythrocytes was 5.2 ± 0.26 10^12/l, the Leukocytes is recorded as 5.6 ± 0.22** 10^9/l and the Lymphocytes is reported as 72.5 ± 1.4%. In the assay on male rats with cytopenia (setting [5]), this molecule gave a Reticulocytes of 1.3 ± 0.3% and a Segmented neutrophils of 20.3 ± 2.4 %.
Turning to `O=C([O-])[O-].[Li+].[Li+]` [Li2HCO3, lithium carbonate], in the assay with male rats with cytopenia (setting [3]), the ESR was determined as 2.4 ± 0.42 mm/h, the Erythrocytes is 3.7 ± 0.21 10^12/l, the Leukocytes is listed as 3.75 ± 0.46* 10^9/l and the Lymphocytes is reported as 62 ± 3.8 %. For the same molecule, in the assay on male rats with cytopenia (setting [3]), the Reticulocytes was 0.118 ± 0.01 %, the Segmented neutrophils is 19.7 ± 3.4 % and the Thrombocytes is 256 ± 45.3 10^9/l. In addition, in the assay with male rats with cytopenia (setting [4]), the ESR was 2.0 ± 0.36 mm/h, the Erythrocytes is listed as 3.6 ± 0.29 10^12/l, the Leukocytes was 3.22 ± 0.11* 10^9/l and the Lymphocytes amounted to 50.7 ± 1.6 %. Moreover, in the assay on male rats with cytopenia (setting [4]), the Reticulocytes is on record as 1.1 ± 0.1%, the Segmented neutrophils came out at 33 ± 1.7 % and the Thrombocytes is on record as 119 ± 12.0** 10^3/l. For the same molecule, in the assay on male rats with cytopenia (setting [5]), the ESR is on record as 2.4 ± 0.65 mm/h, the Erythrocytes is 4.9 ± 0.27 10^12/l, the Leukocytes was 5.9 ± 0.26** 10^9/l and the Lymphocytes was determined as 69.3 ± 0.9%. In the assay with male rats with cytopenia (setting [5]), this molecule had a Reticulocytes of 1.4 ± 0.3% and a Segmented neutrophils of 14.9 ± 2.6 %.
For the molecule `Nc1nc2c(ncn2COCCO)c(=O)[nH]1` [Zovirax], in the assay with herpes type 2 (HSV-2) (setting [6]), the “% mortality” value came to 50%; the “% protection, (S)” value is listed as 12.5%; the Died/total in group is on record as 8/16; the “ML (days) (T), mean life” value is on record as 12.8 days. For the same molecule, in the assay with herpes type 2 (HSV-2) (setting [7]), the “% mortality” value was determined as 0%; the “% protection, (S)” value is given as 62.5%; the Died/total in group is reported as 0/16; the “ML (days) (T), mean life” value is given as “∞”.
For the molecule `N[C@@H](CS)C(=O)O` [cysteine], in the assay with herpes type 2 (HSV-2) (20 mg/kg daily for 14 days), the “% mortality” value was determined as 62.5%; the Died/total in group was 10/16; the “ML (days) (T), mean life” value turned out to be 11.4 days. In addition, the “activation of the EGF receptor, by a factor of” value in assay [1] (cysteine 0.015 μmol/ml, periods of action from 1 hour to 4-8 hours, ratio to control) is 8-10. In addition, the “[Ca2+]i increased to, by mobilization of calcium from the intracellular stores” value in the assay with peritoneal macrophages (rat peritoneal macrophages at rest, 0.015 μmol/ml) is 180 ± 19 nM. Further, in the assay with male rats with cytopenia (setting [3]), the ESR is 2.2 ± 0.30 mm/h, the Erythrocytes is on record as 3.0 ± 0.29 10^12/l, the Leukocytes is recorded as 3.26 ± 0.31* 10^9/l and the Lymphocytes was determined as 68 ± 2.8 %. Further, in the assay on male rats with cytopenia (setting [3]), the Reticulocytes stood at 0.09 ± 0.006 %, the Segmented neutrophils was found to be 17.6 ± 2.1 % and the Thrombocytes is 220 ± 45.3 10^9/l. In the assay with male rats with cytopenia (setting [4]), the ESR worked out at 1.9 ± 0.39 mm/h, the Erythrocytes is 3.1 ± 0.33 10^12/l, the Leukocytes is 3.47 ± 0.08* 10^9/l and the Lymphocytes came out at 51.5 ± 1.3 %. In the assay with male rats with cytopenia (setting [4]), the Segmented neutrophils is 30 ± 1.8 % and the Thrombocytes is recorded as 124 ± 11.0** 10^3/l. Further, in the assay with male rats with cytopenia (setting [5]), the ESR worked out at 2.1 ± 0.73 mm/h, the Erythrocytes is listed as 4.7 ± 0.21 10^12/l, the Leukocytes is on record as 5.7 ± 0.22** 10^9/l and the Lymphocytes is recorded as 72.1 ± 1.6%. In the assay with male rats with cytopenia (setting [5]), this molecule yielded a Reticulocytes of 1.1 ± 0.4% and a Segmented neutrophils of 13.3 ± 1.9 %. In assay [2] (setting [8]), the “% mortality” value worked out at 75%; the “% protection, (S)” value was found to be 0%; the Died/total in group was 12/16; the “HML (T), (days), harmonic mean life” value was determined as 5.6 days.
As for `NCC(=O)O` [glycine], the “influence on the tyrosine kinase activity of the epidermal growth factor receptor” value in assay [1] (ligands 0.015 μmol/ml, coordination compounds 0.015 nmol/ml) is listed as “barely detected”.
Turning to `CO[C@@H]1[C@@H](O[C@@H]2O[C@H](C)[C@@H](O[C@H]3C[C@@](C)(O)[C@@H](OC(=O)CC(C)C)[C@H](C)O3)[C@H](N(C)C)[C@H]2O)[C@@H](CC=O)C[C@@H](C)[C@@H](O)/C=C/C=C/C[C@@H](C)OC(=O)C[C@H]1OC(C)=O` [josamycin], in assay [2] (setting [9]), the “% mortality” value worked out at 37.5%; the “% protection, (S)” value is on record as 37.5%; the Died/total in group is on record as 6/16; the “HML (T), (days), harmonic mean life” value amounted to 12.35 days. In assay [2] (setting [10]), the “% mortality” value is recorded as 12.5%; the “% protection, (S)” value is given as 62.5%; the Died/total in group is recorded as 2/16; the “HML (T), (days), harmonic mean life” value is 83.3 days. In assay [2] (setting [11]), the “% mortality” value was found to be 0%; the “% protection, (S)” value is 75%; the Died/total in group is 0/16; the “HML (T), (days), harmonic mean life” value is “∞”.
